Like-named read-outs stand apart in the source and are kept apart here.
How the values were obtained:
SH-SY5Y cells [1] = assay: Nuclear count from microscopy images (cellular growth and toxicity); also: reference of the scale not given here
SH-SY5Y cells [2] = assay: Chemotype enrichment analysis of PKIS2 primary screen hit categories; details: PKIS2 primary screening, hit category
endogenous TFEB = assay: TFEB nuclear translocation, immunocytochemistry high-content imaging; format: cell-based
endogenous TFE3 = assay: TFE3 nuclear translocation, immunocytochemistry high-content imaging; format: cell-based
SH-SY5Y cells [3] = system: SH-SY5Y cells; also: reference of the scale not given here
SH-SY5Y cells [4] = assay: AK (adenylate kinase) release ToxiLight cytotoxicity assay; also: reference of the scale not given here
[5] = PKIS2 primary screening, DQ Red BSA intensity
[6] = PKIS2 primary screening, DQ Red BSA spot count

c1ccc(Oc2ccc(Nc3ccnc4cc(-c5ccc(CN6CCCCC6)o5)ccc34)cc2)nc1 [UNC10225094A]
Nuclear Count (SH-SY5Y cells [1]; PKIS2 primary screening): 127.56 | Outcome (SH-SY5Y cells [2]): LYSO TOXIC | TFEB % (endogenous TFEB; PKIS2 primary screening): 15.03% | TFE3 % (endogenous TFE3; PKIS2 primary screening): 31.67% | DQ Intensity (SH-SY5Y cells [3]; [5]): 89.29 | DQ Spot (SH-SY5Y cells [3]; [6]): 45.68 | AK (SH-SY5Y cells [4]; PKIS2 primary screening): 71.77

Fc1cc(Cl)ccc1Nc1ccnc2cc(-c3ccc(CN4CCOCC4)o3)ccc12 [UNC10225106A]
Nuclear Count (SH-SY5Y cells [1]; PKIS2 primary screening): 98.32 | Outcome (SH-SY5Y cells [2]): LYSO TOXIC | TFEB % (endogenous TFEB; PKIS2 primary screening): 10.01% | TFE3 % (endogenous TFE3; PKIS2 primary screening): 18.79% | DQ Intensity (SH-SY5Y cells [3]; [5]): 127.02 | DQ Spot (SH-SY5Y cells [3]; [6]): 67.74 | AK (SH-SY5Y cells [4]; PKIS2 primary screening): 77.69

Cl.Cl.NC[C@H](Cc1ccc(C(F)(F)F)cc1)NC(=O)c1cc(Br)c(-c2ccnc3[nH]ccc23)s1 [UNC10225108A]
Nuclear Count (SH-SY5Y cells [1]; PKIS2 primary screening): 144.66 | Outcome (SH-SY5Y cells [2]): TFE3 | TFEB % (endogenous TFEB; PKIS2 primary screening): 5.26% | TFE3 % (endogenous TFE3; PKIS2 primary screening): 23.22% | DQ Intensity (SH-SY5Y cells [3]; [5]): 147.21 | DQ Spot (SH-SY5Y cells [3]; [6]): 85.33 | AK (SH-SY5Y cells [4]; PKIS2 primary screening): 105.44

Nc1ncc(-c2ccc3nccc(-c4ccncc4)c3c2)cc1S(=O)(=O)N1CCCCC1 [UNC10225117A]
Nuclear Count (SH-SY5Y cells [1]; PKIS2 primary screening): 82.78 | Outcome (SH-SY5Y cells [2]): TOXIC | TFEB % (endogenous TFEB; PKIS2 primary screening): 3.14% | TFE3 % (endogenous TFE3; PKIS2 primary screening): 4.68% | DQ Intensity (SH-SY5Y cells [3]; [5]): 254.18 | DQ Spot (SH-SY5Y cells [3]; [6]): 83.51 | AK (SH-SY5Y cells [4]; PKIS2 primary screening): 150.20

Nc1nccc2scc(-c3ccc4c(c3)CCN4C(=O)Cc3ccccc3)c12 [UNC10225119A]
Nuclear Count (SH-SY5Y cells [1]; PKIS2 primary screening): 119.23 | Outcome (SH-SY5Y cells [2]): LYSO TOXIC | TFEB % (endogenous TFEB; PKIS2 primary screening): 5.51% | TFE3 % (endogenous TFE3; PKIS2 primary screening): 4.70% | DQ Intensity (SH-SY5Y cells [3]; [5]): 60.09 | DQ Spot (SH-SY5Y cells [3]; [6]): 72.10 | AK (SH-SY5Y cells [4]; PKIS2 primary screening): 128.12

Cl.c1ccc(Oc2ccc(Nc3ccnc4cc(-c5ccc(CN6CCNCC6)o5)ccc34)cc2)nc1 [UNC10225130B]
Nuclear Count (SH-SY5Y cells [1]; PKIS2 primary screening): 88.02 | Outcome (SH-SY5Y cells [2]): LYSO TOXIC | TFEB % (endogenous TFEB; PKIS2 primary screening): 17.19% | TFE3 % (endogenous TFE3; PKIS2 primary screening): 38.53% | DQ Intensity (SH-SY5Y cells [3]; [5]): 87.94 | DQ Spot (SH-SY5Y cells [3]; [6]): 55.20 | AK (SH-SY5Y cells [4]; PKIS2 primary screening): 101.15

Cc1nnc(-c2ccc(C)c(-c3ccc(C(=O)O)cc3)c2)o1 [UNC10225501A]
Nuclear Count (SH-SY5Y cells [1]; PKIS2 primary screening): 117.94 | TFEB % (endogenous TFEB; PKIS2 primary screening): 7.30% | TFE3 % (endogenous TFE3; PKIS2 primary screening): 10.21% | DQ Intensity (SH-SY5Y cells [3]; PKIS2 primary screening): 75.58 | DQ Spot (SH-SY5Y cells [3]; PKIS2 primary screening): 83.30 | AK (SH-SY5Y cells [4]; PKIS2 primary screening): 95.30

O=C(NCc1cccs1)c1cc(C(=O)c2c(Cl)cccc2Cl)c[nH]1 [UNC10225502A]
Nuclear Count (SH-SY5Y cells [1]; PKIS2 primary screen): 105.30 | TFEB % (endogenous TFEB; PKIS2 primary screen): 6.92% | TFE3 % (endogenous TFE3; PKIS2 primary screen): 7.89% | DQ Intensity (SH-SY5Y cells [3]; PKIS2 primary screen, DQ Red BSA intensity): 112.22 | DQ Spot (SH-SY5Y cells [3]; PKIS2 primary screen, DQ Red BSA spot count): 106.20 | AK (SH-SY5Y cells [4]; PKIS2 primary screen): 136.34

NCCC(NC(=O)c1cc(Br)c(-c2ccnc3[nH]ccc23)s1)c1ccccc1.O=C(O)C(F)(F)F.O=C(O)C(F)(F)F (stereo not drawn) [UNC10225503A]
Nuclear Count (SH-SY5Y cells [1]; PKIS2 primary screening): 121.43 | TFEB % (endogenous TFEB; PKIS2 primary screening): 3.19% | TFE3 % (endogenous TFE3; PKIS2 primary screening): 15.14% | DQ Intensity (SH-SY5Y cells [3]; [5]): 126.00 | DQ Spot (SH-SY5Y cells [3]; [6]): 127.76 | AK (SH-SY5Y cells [4]; PKIS2 primary screening): 81.01

CN(C)c1ncnc2nc[nH]c12 [UNC10243858A]
Nuclear Count (SH-SY5Y cells [1]; PKIS2 primary screening): 91.65 | TFEB % (endogenous TFEB; PKIS2 primary screening): 5.99% | TFE3 % (endogenous TFE3; PKIS2 primary screening): 16.40% | DQ Intensity (SH-SY5Y cells [3]; PKIS2 primary screening): 152.14 | DQ Spot (SH-SY5Y cells [3]; PKIS2 primary screening): 119.94 | AK (SH-SY5Y cells [4]; PKIS2 primary screening): 79.19

[2H]C([2H])(c1cccc(C(F)(F)F)c1C)n1ccn2c(=O)nc(N3CCOCC3)cc12 [UNC10243860A]
Nuclear Count (SH-SY5Y cells [1]; PKIS2 primary screening): 110.69 | TFEB % (endogenous TFEB; PKIS2 primary screening): 4.33% | TFE3 % (endogenous TFE3; PKIS2 primary screening): 12.75% | DQ Intensity (SH-SY5Y cells [3]; PKIS2 primary screening): 104.50 | DQ Spot (SH-SY5Y cells [3]; PKIS2 primary screening): 118.55 | AK (SH-SY5Y cells [4]; PKIS2 primary screening): 87.88

Cc1c(Cn2ccn3c(=O)cc(N4CCOCC4)nc23)cccc1C(F)(F)F [UNC10243861A]
Nuclear Count (SH-SY5Y cells [1]; PKIS2 primary screening): 146.89 | TFEB % (endogenous TFEB; PKIS2 primary screening): 1.67% | TFE3 % (endogenous TFE3; PKIS2 primary screening): 6.09% | DQ Intensity (SH-SY5Y cells [3]; PKIS2 primary screening): 74.52 | DQ Spot (SH-SY5Y cells [3]; PKIS2 primary screening): 79.14 | AK (SH-SY5Y cells [4]; PKIS2 primary screening): 106.43

CNc1ncnc2[nH]ncc12 [UNC10243862A]
Nuclear Count (SH-SY5Y cells [1]; PKIS2 primary screening): 108.49 | TFEB % (endogenous TFEB; PKIS2 primary screening): 5.21% | TFE3 % (endogenous TFE3; PKIS2 primary screening): 11.00% | DQ Intensity (SH-SY5Y cells [3]; PKIS2 primary screening): 93.16 | DQ Spot (SH-SY5Y cells [3]; PKIS2 primary screening): 103.80 | AK (SH-SY5Y cells [4]; PKIS2 primary screening): 111.70

Nc1ncnc2[nH]c(-c3ccccc3)nc12 [UNC10243863A]
Nuclear Count (SH-SY5Y cells [1]; PKIS2 primary screening): 66.20 | TFEB % (endogenous TFEB; PKIS2 primary screening): 9.65% | TFE3 % (endogenous TFE3; PKIS2 primary screening): 10.89% | DQ Intensity (SH-SY5Y cells [3]; PKIS2 primary screening): 154.91 | DQ Spot (SH-SY5Y cells [3]; PKIS2 primary screening): 119.26 | AK (SH-SY5Y cells [4]; PKIS2 primary screening): 85.62

Cc1occc1-c1ncc(OC[C@@H](N)Cc2c[nH]c3ccccc23)cc1-c1ccc2[nH]nc(C)c2c1.O=C(O)C(F)(F)F [UNC10243880A]
Nuclear Count (SH-SY5Y cells [1]; PKIS2 primary screening): 69.84 | TFEB % (endogenous TFEB; PKIS2 primary screening): 19.77% | TFE3 % (endogenous TFE3; PKIS2 primary screening): 39.74% | DQ Intensity (SH-SY5Y cells [3]; PKIS2 primary screening): 77.42 | DQ Spot (SH-SY5Y cells [3]; PKIS2 primary screening): 58.66 | AK (SH-SY5Y cells [4]; PKIS2 primary screening): 148.86

CSc1nn2c(=O)cc(N3CCOCC3)nc2n1Cc1cccc(C(F)(F)F)c1C [UNC10243881A]
Nuclear Count (SH-SY5Y cells [1]; PKIS2 primary screening): 93.06 | TFEB % (endogenous TFEB; PKIS2 primary screening): 6.63% | TFE3 % (endogenous TFE3; PKIS2 primary screening): 9.67% | DQ Intensity (SH-SY5Y cells [3]; PKIS2 primary screening): 80.81 | DQ Spot (SH-SY5Y cells [3]; PKIS2 primary screening): 106.13 | AK (SH-SY5Y cells [4]; PKIS2 primary screening): 100.35

From PMC9851200, “Multiparameter phenotypic screening for endogenous TFEB and TFE3 translocation identifies novel chemical series modulating lysosome function” (Autophagy, 2022)
